From patent publication US9796704B2, “Substituted quinazolines as receptor-type kinase inhibitors” (Symphony Evolution, Inc., priority 2002, dated 2017)

How the values were obtained:
EphB4 = EphB4 (Homo sapiens (Human), UniProt P54760); test: EphB4 kinase inhibition, 33P phosphoryl transfer assay (radiometric); format: biochemical
EGFR = EGFR (Homo sapiens (Human), UniProt P00533); test: EGFR kinase inhibition, luciferase-coupled chemiluminescent assay (LCCA); settings: read-out: EGFR IC50
Protocol: (§1) Kinase activity and compound inhibition are investigated using one or more of the three assay formats described below. The ATP concentrations are selected near its Michaelis-Menten constant (KM) for each individual kinase. Dose-response experiments are performed at ten different inhibitor concentrations in a 384-well plate format. […] Typically H is close to unity.
(§2) In the LCCA assays, kinase activity is measured by the ATP consumption that is accurately measured by luciferase-coupled chemiluminescence. Greiner 384-well white clear bottom medium binding plates are used for LCCA. Briefly the kinase reaction is initiated by mixing compounds, ATP and kinases in a 20 μL volume. At the end of the kinase reaction, a 20 μL luciferase-luciferin mix is added and the chemiluminescent signal is read on a Wallac Victor^2 reader.

EphA2 = EphA2 (Homo sapiens (Human), UniProt P29317); test: EphA2 kinase inhibition, luciferase-coupled chemiluminescent assay (LCCA); settings: read-out: EphA2 IC50
Sequence of EphA2 (P29317 598-890): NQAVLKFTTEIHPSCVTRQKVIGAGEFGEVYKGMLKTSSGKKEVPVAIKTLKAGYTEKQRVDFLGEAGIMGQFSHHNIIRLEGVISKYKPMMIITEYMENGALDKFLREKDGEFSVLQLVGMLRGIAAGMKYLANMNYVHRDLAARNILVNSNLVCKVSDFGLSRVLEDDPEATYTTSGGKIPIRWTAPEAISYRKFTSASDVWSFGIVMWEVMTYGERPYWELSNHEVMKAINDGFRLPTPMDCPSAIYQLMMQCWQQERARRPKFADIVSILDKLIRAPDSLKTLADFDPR
Protocol: as §1, §2

KDR = KDR (Homo sapiens (Human), UniProt P35968); test: KDR kinase inhibition, luciferase-coupled chemiluminescent assay (LCCA); settings: read-out: KDR IC50
Sequence of KDR (P35968 807-1356): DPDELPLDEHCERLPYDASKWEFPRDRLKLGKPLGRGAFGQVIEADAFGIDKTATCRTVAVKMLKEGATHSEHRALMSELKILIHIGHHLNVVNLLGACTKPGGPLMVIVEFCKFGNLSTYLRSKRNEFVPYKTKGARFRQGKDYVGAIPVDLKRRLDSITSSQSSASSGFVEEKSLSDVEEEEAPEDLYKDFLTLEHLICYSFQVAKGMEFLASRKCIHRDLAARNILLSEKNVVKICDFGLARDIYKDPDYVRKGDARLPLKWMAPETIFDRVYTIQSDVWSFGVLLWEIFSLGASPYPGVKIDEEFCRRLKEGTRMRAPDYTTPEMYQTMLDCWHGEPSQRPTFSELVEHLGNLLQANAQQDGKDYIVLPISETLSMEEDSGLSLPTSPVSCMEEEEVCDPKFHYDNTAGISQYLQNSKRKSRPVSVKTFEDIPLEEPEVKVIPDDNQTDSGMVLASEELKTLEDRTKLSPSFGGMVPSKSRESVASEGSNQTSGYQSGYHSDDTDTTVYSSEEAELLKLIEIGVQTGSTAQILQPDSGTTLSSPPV
Protocol: as §1, §2

Measured: IC50

Sequence of EphB4 (P54760 605-890): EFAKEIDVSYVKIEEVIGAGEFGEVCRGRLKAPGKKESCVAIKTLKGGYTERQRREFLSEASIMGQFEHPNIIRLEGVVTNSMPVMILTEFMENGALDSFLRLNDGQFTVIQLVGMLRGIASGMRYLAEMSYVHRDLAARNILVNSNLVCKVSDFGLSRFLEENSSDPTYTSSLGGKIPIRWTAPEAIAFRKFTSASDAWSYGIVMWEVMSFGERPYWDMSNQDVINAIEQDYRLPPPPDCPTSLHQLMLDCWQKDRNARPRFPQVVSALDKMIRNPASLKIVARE

COc1cc2c(Nc3ccc(Br)c(Cl)c3)ncnc2cc1O[C@H]1CO[C@H]2[C@@H]1OC[C@@H]2OC(F)F [Example 70, 1,4:3,6-dianhydro-2-O-[4-[(4-bromo-3-chlorophenyl)amino]-6-(methyloxy)quinazolin-7-yl]-5-O-(difluoromethyl)-L-iditol]
< 0.05 µM: EGFR | KDR
0.05 to 1 µM: EphB4 | EphA2

COc1cc2c(Nc3ccc(Br)c(Cl)c3)ncnc2cc1O[C@H]1CO[C@@H]2[C@@H](OC)[C@H](OC)O[C@@H]21 [Example 79, methyl 3,6-anhydro-5-O-[4-[(4-bromo-3-chlorophenyl)amino]-6-(methyloxy)quinazolin-7-yl]-2-O-methyl-alpha-L-idofuranoside]
< 0.05 µM: all assays above

COc1cc2c(Nc3ccc(F)c(C(F)(F)F)c3)ncnc2cc1O[C@@H]1CO[C@@H]2[C@H]1OC[C@H]2F [Example 89, 1,4:3,6-dianhydro-2-deoxy-2-fluoro-5-O-[4-{[4-fluoro-3-(trifluoromethyl)phenyl]amino}-6-(methyloxy)quinazolin-7-yl]-D-iditol]
< 0.05 µM: EGFR | EphA2 | KDR

COc1cc2c(Nc3cc(F)cc(F)c3)ncnc2cc1O[C@@H]1CO[C@@H]2[C@H]1OC[C@H]2F [Example 94, 1,4:3,6-dianhydro-2-deoxy-5-O-[4-[(3,5-difluorophenyl)amino]-6-(methyloxy)quinazolin-7-yl]-2-fluoro-D-iditol]
< 0.05 µM: all assays above

COc1cc2c(Nc3ccc(Br)cc3Cl)ncnc2cc1O[C@@H]1CO[C@@H]2[C@H]1OC[C@H]2F [Example 96, 1,4:3,6-dianhydro-5-O-[4-[(4-bromo-2-chlorophenyl)amino]-6-(methyloxy)quinazolin-7-yl]-2-deoxy-2-fluoro-D-iditol]
< 0.05 µM: all assays above

COc1cc2c(Nc3ccc(Cl)c(Cl)c3F)ncnc2cc1O[C@@H]1CO[C@@H]2[C@H]1OC[C@H]2F [Example 97, 1,4:3,6-dianhydro-2-deoxy-5-O-[4-[(3,4-dichloro-2-fluorophenyl)amino]-6-(methyloxy)quinazolin-7-yl]-2-fluoro-D-iditol]
< 0.05 µM: EphB4 | EGFR | KDR

COc1cc2c(Nc3cc(Cl)c(Br)cc3F)ncnc2cc1O[C@@H]1CO[C@@H]2[C@H]1OC[C@H]2F [Example 98, 1,4:3,6-dianhydro-5-O-[4-[(4-bromo-5-chloro-2-fluorophenyl)amino]-6-(methyloxy)quinazolin-7-yl]-2-deoxy-2-fluoro-D-iditol]
< 0.05 µM: all assays above

COc1cc2c(Nc3cc(F)c(F)cc3F)ncnc2cc1O[C@@H]1CO[C@@H]2[C@H]1OC[C@H]2F [Example 99, 1,4:3,6-dianhydro-2-deoxy-2-fluoro-5-O-{6-(methyloxy)-4-[(2,4,5-trifluorophenyl)amino]quinazolin-7-yl}-D-iditol]
< 0.05 µM: all assays above

COc1cc2c(Nc3cc(F)c(Br)c(Cl)c3)ncnc2cc1O[C@@H]1CO[C@@H]2[C@H]1OC[C@H]2F [Example 104, 1,4:3,6-dianhydro-5-O-[4-[(4-bromo-3-chloro-5-fluorophenyl)amino]-6-(methyloxy)quinazolin-7-yl]-2-deoxy-2-fluoro-D-iditol]
< 0.05 µM: EphB4 | EGFR | KDR

COc1cc2c(Nc3ccc(Cl)c(Cl)c3Cl)ncnc2cc1O[C@@H]1CO[C@@H]2[C@H]1OC[C@H]2F [Example 106, 1,4:3,6-dianhydro-2-deoxy-2-fluoro-5-O-{6-(methyloxy)-4-[(2,3,4-trichlorophenyl)amino]quinazolin-7-yl}-D-iditol]
< 0.05 µM: all assays above

COc1cc2c(Nc3cc(Cl)c(Cl)c(Cl)c3)ncnc2cc1O[C@@H]1CO[C@@H]2[C@H]1OC[C@H]2F [Example 107, 1,4:3,6-dianhydro-2-deoxy-2-fluoro-5-O-{6-(methyloxy)-4-[(3,4,5-trichlorophenyl)amino]quinazolin-7-yl}-D-iditol]
< 0.05 µM: all assays above

COc1cc2c(Nc3ccc(Br)cc3F)ncnc2cc1O[C@@H]1CO[C@@H]2[C@H]1OC[C@H]2F [Example 108, 1,4:3,6-dianhydro-5-O-[4-[(4-bromo-2-fluorophenyl)amino]-6-(methyloxy)quinazolin-7-yl]-2-deoxy-2-fluoro-D-iditol]
< 0.05 µM: all assays above

COc1cc2c(Nc3ccc(C(F)(F)F)cc3Br)ncnc2cc1O[C@@H]1CO[C@@H]2[C@H]1OC[C@H]2F [Example 125, 1,4:3,6-dianhydro-5-O-[4-{[2-bromo-4-(trifluoromethyl)phenyl]amino}-6-(methyloxy)quinazolin-7-yl]-2-deoxy-2-fluoro-D-iditol]
< 0.05 µM: all assays above

COc1cc2c(Nc3ccc(Cl)c(Cl)c3)ncnc2cc1OCc1noc(CN(C)C)n1 [Example 138, N-(3,4-dichlorophenyl)-7-[({5-[(dimethylamino)methyl]-1,2,4-oxadiazol-3-yl}methyl)oxy]-6-(methyloxy)quinazolin-4-amine]
< 0.05 µM: EphB4 | EGFR | KDR

COc1cc2c(Nc3ccc(Cl)c(Cl)c3)ncnc2cc1OCc1nc(CN2CCN(C)CC2)no1 [Example 140, N-(3,4-dichlorophenyl)-6-(methyloxy)-7-[({3-[(4-methylpiperazin-1-yl)methyl]-1,2,4-oxadiazol-5-yl}methyl)oxy]quinazolin-4-amine]
< 0.05 µM: EphB4 | EGFR | KDR

COc1cc2c(Nc3ccc(Cl)c(Cl)c3)ncnc2cc1OCC1CN(C(=O)OC(C)(C)C)CCO1 (centres unmarked) [Example 148, 1,1-dimethylethyl 2-({[4-[(3,4-dichlorophenyl)amino]-6-(methyloxy)quinazolin-7-yl]oxy}methyl)morpholine-4-carboxylate]
< 0.05 µM: EphB4 | EGFR | KDR

COc1cc2c(Nc3ccc(Cl)c(Cl)c3)ncnc2cc1OCC1CN(C)CCCO1 (centres unmarked) [Example 155, N-(3,4-dichlorophenyl)-7-{[(4-methyl-1,4-oxazepan-2-yl)methyl]oxy}-6-(methyloxy)quinazolin-4-amine]
< 0.05 µM: EphB4 | EGFR | KDR

COc1cc2c(Nc3ccc(Cl)c(Cl)c3)ncnc2cc1OCc1noc(C)c1-c1ccccc1 [Example 161, N-(3,4-dichlorophenyl)-6-(methyloxy)-7-{[(5-methyl-4-phenylisoxazol-3-yl)methyl]oxy}quinazolin-4-amine]
< 0.05 µM: EphB4 | EGFR | KDR

COc1cc2c(Nc3ccc(Cl)c(Cl)c3)ncnc2cc1OCc1noc(-c2cccc(C(F)(F)F)c2)n1 [Example 166, N-(3,4-dichlorophenyl)-6-(methyloxy)-7-[({5-[3-(trifluoromethyl)phenyl]-1,2,4-oxadiazol-3-yl}methyl)oxy]quinazolin-4-amine]
< 0.05 µM: EGFR | KDR

COc1cc2c(Nc3ccc(Cl)c(Cl)c3)ncnc2cc1OCc1noc(C2CCN(C(=O)OC(C)(C)C)CC2)n1 [Example 197, 1,1-dimethylethyl 4-[3-({[4-[(3,4-dichlorophenyl)amino]-6-(methyloxy)quinazolin-7-yl]oxy}methyl)-1,2,4-oxadiazol-5-yl]piperidine-1-carboxylate]
0.05 to 1 µM: EphA2
< 0.05 µM: all other assays above

COc1cc2c(Nc3ccc(Cl)c(Cl)c3)ncnc2cc1OCc1nc(-c2ccncc2)cs1 [Example 203, N-(3,4-dichlorophenyl)-6-(methyloxy)-7-{[(4-pyridin-4-yl-1,3-thiazol-2-yl)methyl]oxy}quinazolin-4-amine]
< 0.05 µM: all assays above

COc1cc2c(Nc3ccc(Cl)c(Cl)c3)ncnc2cc1OCc1nc(CN2CCCN(C)CC2)cs1 [Example 210, N-(3,4-dichlorophenyl)-7-[({4-[(4-methyl-1,4-diazepan-1-yl)methyl]-1,3-thiazol-2-yl}methyl)oxy]-6-(methyloxy)quinazolin-4-amine]
< 0.05 µM: all assays above

COc1cc2c(Nc3ccc(Cl)c(Cl)c3)ncnc2cc1OCc1nc(N2CCN(C)CC2)no1 [Example 218, N-(3,4-dichlorophenyl)-6-(methyloxy)-7-({[3-(4-methylpiperazin-1-yl)-1,2,4-oxadiazol-5-yl]methyl}oxy)quinazolin-4-amine]
0.05 to 1 µM: EphA2
< 0.05 µM: all other assays above

COc1cc2c(Nc3ccc(Cl)c(Cl)c3)ncnc2cc1OCc1cc(Br)cc(Br)c1 [Example 232, 7-{[(3,5-dibromophenyl)methyl]oxy}-N-(3,4-dichlorophenyl)-6-(methyloxy)quinazolin-4-amine]
0.05 to 1 µM: EphB4 | EphA2
< 0.05 µM: EGFR | KDR

N-(3,4-dichlorophenyl)-6-(methyloxy)-7-{[(5-piperidin-2-yl-1,2,4-oxadiazol-3-yl)methyl]oxy}quinazolin-4-amine hydrochloride [Example 31]
< 0.05 µM: EphB4 | EGFR | KDR
